In ChEMBL document CHEMBL1201862, “PubChem BioAssay data set” (2004):
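Five compound concentrations were applied to cells in 96-well plates for 48 hours; endpoints were derived by simple linear interpolation of the resulting dose-response curve. Abbreviation: GI50, concentration required for 50% inhibition of growth.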 The source made the active and inactive calls. Rule as the data show it: active = GI50 up to about 1.1 µM and inactive = higher.

Legend:
Assay in all cases: NCI anticancer screen, dose series, 48 h
IGROV-1 = tested on: IGROV-1
MOLT-4 = tested on: MOLT-4
SW-620 = tested on: SW-620
K562 = tested on: K562
SF-539 = tested on: SF-539
NCI-H460 = tested on: NCI-H460
OVCAR-4 = tested on: OVCAR-4
HT-29 = tested on: HT-29
SK-MEL-28 = tested on: SK-MEL-28
SNB-19 = tested on: SNB-19
U-251 = tested on: U-251
NCI-H522 = tested on: NCI-H522
HCT-116 = tested on: HCT-116
UACC-62 = tested on: UACC-62
CCRF-CEM = tested on: CCRF-CEM
LOX IMVI = tested on: LOX IMVI
Malme-3M = tested on: Malme-3M

Measured: GI50

C/C(=N\NS(=O)(=O)c1ccc(C)cc1)c1ccc[n+]([O-])n1
inactive: IGROV-1 > 100 µM | MOLT-4 56.9 µM | SW-620 32.1 µM | K562 26.3 µM | SF-539 > 100 µM | NCI-H460 > 100 µM | OVCAR-4 > 100 µM | HT-29 > 100 µM | SK-MEL-28 > 100 µM | SNB-19 > 100 µM | U-251 > 100 µM | NCI-H522 36.9 µM | HCT-116 > 100 µM | UACC-62 > 100 µM | CCRF-CEM 25.2 µM

N#Cc1cccnc1Cl
inactive: IGROV-1 > 100 µM | MOLT-4 > 100 µM | SW-620 > 100 µM | K562 > 100 µM | LOX IMVI > 100 µM | Malme-3M > 100 µM | SF-539 > 100 µM | NCI-H460 > 100 µM | OVCAR-4 > 100 µM | HT-29 > 100 µM | SK-MEL-28 > 100 µM | SNB-19 > 100 µM | U-251 > 100 µM | NCI-H522 > 100 µM | UACC-62 > 100 µM | CCRF-CEM > 100 µM

Cc1ccc2nc(NC(=O)C(=O)C(C#N)c3ccc(Cl)cc3)sc2c1 (configuration not stated)
inactive: IGROV-1 > 50 µM | SW-620 > 50 µM | LOX IMVI > 50 µM | Malme-3M > 50 µM | SF-539 > 50 µM | NCI-H460 > 50 µM | OVCAR-4 > 50 µM | HT-29 > 50 µM | SK-MEL-28 > 50 µM | SNB-19 > 50 µM | U-251 > 50 µM | HCT-116 > 50 µM | UACC-62 > 50 µM

O=C1C2c3[nH]c4ccccc4c3C3CCCC3C2C(=O)N1c1ccccc1 (configuration not stated)
inactive: IGROV-1 > 100 µM | MOLT-4 > 100 µM | SW-620 74.1 µM | K562 > 100 µM | LOX IMVI > 100 µM | Malme-3M > 100 µM | SF-539 > 100 µM | NCI-H460 91.8 µM | OVCAR-4 17.1 µM | HT-29 > 100 µM | SK-MEL-28 > 100 µM | U-251 > 100 µM | UACC-62 > 100 µM | CCRF-CEM > 100 µM

O=C(CCc1ccccc1)On1nnc2ccccc2c1=O
inactive: IGROV-1 > 100 µM | MOLT-4 > 100 µM | SW-620 > 100 µM | K562 > 100 µM | LOX IMVI > 100 µM | Malme-3M > 100 µM | SF-539 > 100 µM | NCI-H460 > 100 µM | OVCAR-4 > 100 µM | HT-29 > 100 µM | SNB-19 > 100 µM | U-251 > 100 µM | NCI-H522 > 100 µM | HCT-116 > 100 µM | UACC-62 > 100 µM | CCRF-CEM > 100 µM

CN(C)CC(/C(Cc1ccccc1)=N\NC(=O)c1ccncc1)c1ccccc1 (configuration not stated)
inactive: IGROV-1 47.6 µM | SW-620 35.8 µM | K562 31.2 µM | LOX IMVI 30.2 µM | Malme-3M 28.8 µM | SF-539 43.7 µM | OVCAR-4 36.7 µM | HT-29 41 µM | SK-MEL-28 45.9 µM | SNB-19 39 µM | NCI-H522 27.4 µM | UACC-62 31 µM | CCRF-CEM 17.2 µM

C[C@@]1(Cc2ccccc2)C(=O)N2[C@@H](CO)C(c3ccccc3)O[C@]2(C)c2ccccc21 (some centres not stated)
inactive: IGROV-1 > 100 µM | MOLT-4 32.3 µM | SW-620 91.6 µM | K562 > 100 µM | LOX IMVI > 100 µM | SF-539 > 100 µM | OVCAR-4 > 100 µM | SK-MEL-28 > 100 µM | SNB-19 > 100 µM | U-251 > 100 µM | NCI-H522 81.1 µM | HCT-116 > 100 µM | UACC-62 > 100 µM | CCRF-CEM 81.1 µM

COC(=O)C(C)Oc1ccc(O)cc1 (configuration not stated)
inactive: IGROV-1 > 100 µM | SW-620 34.9 µM | K562 > 100 µM | Malme-3M > 100 µM | SF-539 > 100 µM | NCI-H460 > 100 µM | OVCAR-4 > 100 µM | HT-29 > 100 µM | SK-MEL-28 29.2 µM | SNB-19 > 100 µM | U-251 > 100 µM | NCI-H522 > 100 µM | HCT-116 20.9 µM | UACC-62 > 100 µM | CCRF-CEM > 100 µM

O=C1c2ccccc2C(=O)c2c1ccc(O)c2O [ATHRAQUINONES A]
inactive: IGROV-1 35.6 µM | MOLT-4 32.4 µM | SW-620 37.9 µM | K562 36.1 µM | LOX IMVI 37.8 µM | SF-539 42.6 µM | NCI-H460 38.9 µM | OVCAR-4 32.1 µM | HT-29 36 µM | SK-MEL-28 > 100 µM | SNB-19 61.2 µM | U-251 38.6 µM | NCI-H522 39.4 µM | HCT-116 32.4 µM | UACC-62 25.4 µM | CCRF-CEM 36.6 µM
